Results: PMC6361841, “Repurposing of Drugs as Novel Influenza Inhibitors From Clinical Gene Expression Infection Signatures” (Frontiers in Immunology, 2019)
Where two headings read alike, the source gives them in different places.

How the values were obtained:
[1] = tested on: A/Lyon/969/09 (H1N1)pdm09 virus; experiment: microbe, parasite or virus in culture; assay type: cell-based, influenza A(H1N1)pdm09 virus; conditions: Influenza A virus, H1N1, 48 h; pre-treatment/treatment in vitro; A549; […]; read-out: EC50
[2] = tested on: influenza A/Lyon/969/09 (H1N1)pdm09 virus; assay type: cell-based
[3] = tested on: MucilAir® human airway epithelia (HAE); experiment: LDH cytotoxicity in HAE; conditions: oseltamivir 1 μM, diltiazem 90 μM, combinations
[4] = tested on: influenza A/Quebec/144147/09 (H1N1)pdm09 virus; assay type: in vivo, C57BL/6N mice
[5] = tested on: MucilAir® human airway epithelium; assay type: cell-based
[6] = tested on: A/Texas/126/2016 (H3N2); experiment: Antiviral efficacy in A549 cells, H3N2 strain; assay type: cell-based, influenza virus
[7] = tested on: A(H1N1)pdm09 virus; assay type: cell-based, influenza virus
[8] = tested on: influenza A/Quebec/144147/09 (H1N1)pdm09 virus; assay type: in vivo, C57BL/6N mice; remark: listed apart in the source
[9] = tested on: B/Massachusetts/2/2106; experiment: Antiviral efficacy in A549 cells, B strain; assay type: cell-based, influenza virus
[10] = 24 h p.i., oseltamivir 0.1 µM, diltiazem 9 µM or both
[11] = 48 h p.i., oseltamivir 0.1 µM, diltiazem 9 µM or both
[12] = 72 h p.i., oseltamivir 0.1 µM, diltiazem 9 µM or both
[13] = 96 h p.i., oseltamivir 0.1 µM, diltiazem 9 µM or both
[14] = oseltamivir 1 μM, diltiazem 90 μM
[15] = […], oseltamivir 10 mg/kg/day, diltiazem 90 mg/kg/day

COc1ccc([C@@H]2Sc3ccccc3N(CCN(C)C)C(=O)[C@@H]2OC(C)=O)cc1 [Diltiazem]
EC50 [1]: 0.84 nM | Apical viral titer log TCID50/ml (CI95) [2, 10]: 6.47 (5.03 – 7.90) log TCID50/ml | Apical viral titer log TCID50/ml (CI95) [2, 11]: 8.91 (8.67 – 9.16) log TCID50/ml | Apical viral titer log TCID50/ml (CI95) [2, 12]: 8.21 (7.28 – 9.14) log TCID50/ml | Apical viral titer log TCID50/ml (CI95) [2, 13]: 7.32 (6.43 – 8.22) log TCID50/ml | Apical viral titer log TCID50/ml (CI95) ([2]; 96 h p.i., oseltamivir 1 µM, diltiazem 90 µM or both): 7.37 (5.97 – 8.76) log TCID50/ml | Effect on viral replication vs untreated control ([2]; oseltamivir 0.1 μM, diltiazem 9 μM (CMAP) or both, from 5 h p.i., once daily 5 days): no significant advantage over the untreated control | Reduction in apical viral titers at 48 h p.i. compared to the untreated control [2, 14]: > 3 log | Virus on the basolateral medium [2, 14]: No virus was detected | Delay of the peak of viral production ([2]; oseltamivir 1 μM, diltiazem 90 μM (10-fold CMAP)): 24 h | Reduction in apical peak viral titers compared to the untreated control ([2]; oseltamivir 1 μM, diltiazem 90 μM or both, 48 h p.i. untreated vs. 72 h p.i. treated): > 2 log | Treatment-induced toxicity (LDH release) [3]: absence of treatment-induced toxicity | Hazard ratio (HR) for the saline group compared to treatment group (CI95) ([4]; […], diltiazem 45 mg/kg): 7.62 (1.49–38.96) | Mice rescued from death ([4]; […], half-dose diltiazem 45 mg/kg): 30% | Survival ([4]; […], mg/kg/day: oseltamivir 10, monensin 10, diltiazem 90, etilefrine 3): completely prevented mortality | Hazard ratio (HR) for the saline group compared to treatment group (CI95) [4, 15]: 2.85 (0.56–14.47) | Mice rescued from death [4, 15]: 20% | Weight loss ([4]; […], oseltamivir 10, monensin 10, diltiazem 90 mg/kg/day): reduced weight loss | Mean weight loss ([4]; mouse, in vivo): significant improvement | Δ TEER (CI95) [5, 10]: 35.10 (10.96 – 59.23) Ohm/cm^2 | Δ TEER (CI95) ([5]; 24 h p.i., oseltamivir 1 µM, diltiazem 90 µM or both): 86.13 (3.72 – 168.5) Ohm/cm^2 | Δ TEER (CI95) [5, 11]: -48.31 (-180.1 – 83.47) Ohm/cm^2 | Δ TEER (CI95) ([5]; 48 h p.i., oseltamivir 1 µM, diltiazem 90 µM or both): 120.1 (-85.77 – 326.00) Ohm/cm^2 | Δ TEER (CI95) [5, 12]: -218.0 (255.6 – -180.4) Ohm/cm^2 | Δ TEER (CI95) ([5]; 72 h p.i., oseltamivir 1 µM, diltiazem 90 µM or both): -115.5 (-308.5 – 77.52) Ohm/cm^2 | Δ TEER (CI95) [5, 13]: -220.5 (-267.4 – -173.5) Ohm/cm^2 | TEER during the time-course of infection ([5]; oseltamivir 1 μM, diltiazem 90 μM or both): partially buffered the TEER decrease | Relative Viral production ([6]; dose CMAP): 7.9 % of mock-treated | Viral titer ([6]; dose CMAP): 4.92 log TCID50/ml | Relative Viral production ([6]; dose CMAP/10): 12.75 % of mock-treated | Viral titer ([6]; dose CMAP/10): 5.13 log TCID50/ml | Effect of virus pre-incubation on final viral titers vs PBS-incubated controls ([7]; pre-incubation before infection): did not affect final viral titers | Viral titer, Dilution #2 ([7]; virus 10^5 TCID50/mL pre-incubated 1 h, diltiazem 9 µM, etilefrine 18 µM, oseltamivir 1 µM): 4.63 log TCID50/ml | Viral titer, Dilution #1 ([7]; virus 10^6 TCID50/mL pre-incubated 1 h, diltiazem 9 µM, etilefrine 18 µM, oseltamivir 1 µM): 5.63 log TCID50/ml | Mean relative Viral production ([7]; virus pre-incubated 1 h, relative to PBS control): 156.9 % of mock-treated | Clinical benefit in terms of survival vs saline (placebo) group ([8]; […], mg/kg/day: oseltamivir 10, monensin 10, diltiazem 90, etilefrine 3, lanatoside C 100, prednisolone 5, flucytosine 240, felbinac 5, timolol 50): significantly improved survival | Weight loss vs saline (placebo) group ([8]; […], oseltamivir 10, diltiazem 90, etilefrine 3 mg/kg/day): significantly improved | Reduction in lung viral titers (LVTs) on day 5 p.i. ([8]; mouse, in vivo): at least 1 log | Relative Viral production ([9]; dose CMAP): 4.7 % of mock-treated | Viral titer ([9]; dose CMAP): 3.97 log TCID50/ml | Relative Viral production ([9]; dose CMAP/10): 10.0 % of mock-treated | Viral titer ([9]; dose CMAP/10): 4.3 log TCID50/ml
